According to article PMC10045663, “Synthesis, In Vitro Biological Evaluation of Antiproliferative and Neuroprotective Effects and In Silico Studies of Novel 16E-Arylidene-5α,6α-epoxyepiandrosterone Derivatives” (Biomedicines, 2023):

Assays:
Assay type in all cases: cell-based
[1] = system: PC-3 cells (androgen-independent prostatic cancer); assay: MTT cell proliferation assay, PC-3 cells; conditions: 72 h
[2] = system: NHDF cells (normal human dermal fibroblasts); assay: MTT cell proliferation assay, NHDF cells; conditions: 72 h, non-tumoral cells, read-out: Estimated IC50, NHDF
[3] = system: MCF-7 cells (estrogen-responsive breast cancer cells); assay: MTT cell proliferation assay, MCF-7 cells; conditions: 72 h
MCF-7 cells [4] = assay: Nuclear area analysis with ImageJ (Hoechst 33342-stained nuclei); conditions: MCF-7, 1 and 10 µM, 48 h
Excerpt: (§1) The nuclear measurements were achieved by converting 16-bit photomicrographs of Hoechst 33342-stained nuclei in different studied conditions into 8-bit images. Then, these imagens were autothresholded to binary photos using the default “Make binary” function of ImageJ (v. 1.49) software (NIH Image, Bethesda, MD, USA). Cell nuclei that are touching were separated and fragments were discarded based on area through “Analyze Particle” function. This function also provides several other information, such as nuclear area (NA), circumference, and form factor [26]. Furthermore, the “Nearest Neighbor Distance” (NND) was determined. This function allows measuring the distance between each cell nucleus and the nearest ones, providing information about cell distribution.

MCF-7 cells [5] = assay: Nearest neighbor distance analysis with ImageJ; conditions: MCF-7, 1 and 10 µM, 48 h
Excerpt: as §1

- IC50 ([1]; MTT, tumoral cells, read-out: Estimated IC50, PC-3): 19 µM
- IC50 ([3]; MTT, tumoral cells, read-out: Estimated IC50, MCF-7): 3.47 µM
Substance: (E)-16-(2,3-Dichlorobenzylidene)-3-hydroxy-5α ,6α -epoxy-10,13-dimethyl-1,3,4,7,8,9,10,11,12,13,15,16-dodecahydro-2H-cyclopenta[α ]phenanthren-17(14H)-one [Compound 19]
- decrease on cell proliferation relative to the control ([1]; PC-3, 50 µM): higher than 75%
- IC50 [2]: 18.7 µM
- decrease in cell proliferation ([3]; MCF-7, 10 µM): around 75%
- cell proliferation relative to the control ([3]; MCF-7, 50 µM): ~0%
- decrease in cell proliferation ([3]; MCF-7, 50 µM): ~100%
- nuclear area (NA) relative to the control (MCF-7 cells [4]): decreased significantly
- cell distribution (nearest neighbor distance, NND) (MCF-7 cells [5]): more random distribution with nuclei more spaced
